Data: the NIST ThermoML archive (doi:10.1016/j.tca.2016.12.010)
Numbers after ± are expanded uncertainties.

Legend:
[1] = Liquid; for mass density: 94.9 kPa, Vibrating tube method; for vapor or sublimation pressure: Ebulliometric method (Recirculating still)
[2] = refractive index (Na D-line) (dimensionless); details: 94.9 kPa, Liquid, (Schmidt +Haensch) refractometer (Model DSR lambda)
[3] = xn = mol fraction of the nth substance listed; details: 94.9 kPa, Liquid, Vibrating tube method, x2 = 0
[4] = refractive index (Na D-line) (dimensionless); xn = mol fraction of the nth substance listed; details: 94.9 kPa, Liquid, (Schmidt +Haensch) refractometer (Model DSR lambda), x2 = 0

Compound	mass density ([1]; 293.15 K) [kg/m3]	mass density ([1]; 298.15 K) [kg/m3]	mass density ([1]; 303.15 K) [kg/m3]	mass density ([1]; 308.15 K) [kg/m3]	mass density ([1]; 313.15 K) [kg/m3]	mass density ([1]; 318.15 K) [kg/m3]	mass density ([1]; 323.15 K) [kg/m3]	mass density ([1]; 333.15 K) [kg/m3]	refractive index ([2]; 293.15 K)	refractive index ([2]; 298.15 K)	refractive index ([2]; 303.15 K)	refractive index ([2]; 308.15 K)	refractive index ([2]; 313.15 K)	refractive index ([2]; 318.15 K)	refractive index ([2]; 323.15 K)	refractive index ([2]; 333.15 K)	mass density ([3]; 293.15 K) [kg/m3]	mass density ([3]; 303.15 K) [kg/m3]	mass density ([3]; 313.15 K) [kg/m3]	mass density ([3]; 323.15 K) [kg/m3]	other results
CCCCCCCCO [octan-1-ol]	825.57 ± 4	821.9 ± 4	818.08 ± 4	814.31 ± 4	811.09 ± 4	807.7 ± 4	804.05 ± 4	796.88 ± 4	1.4295 ± 0.0024	1.42748 ± 0.0024	1.42561 ± 0.0024	1.42369 ± 0.0024	1.42169 ± 0.0024	1.41973 ± 0.0024	1.41783 ± 0.0024	1.41407 ± 0.0024					
CCCCCCCCCCO [decan-1-ol]	830.01 ± 4		823.54 ± 4		816.13 ± 4		808.84 ± 4	801.43 ± 4	1.43711 ± 0.0024		1.43332 ± 0.0024		1.42949 ± 0.0024		1.42564 ± 0.0024	1.42189 ± 0.0024					vapor or sublimation pressure ([1]; 436.56 K): 13.32 ± 1 kPa; vapor or sublimation pressure ([1]; 469.52 K): 39.99 ± 1 kPa; vapor or sublimation pressure ([1]; 487.85 K): 66.66 ± 1 kPa; vapor or sublimation pressure ([1]; 501.05 K): 94.9 ± 1 kPa
Cc1ccccc1 [toluene]	866.68 ± 4	861.74 ± 4	857.39 ± 4	851.69 ± 4	847.82 ± 4	842.88 ± 4	838.42 ± 4	828.94 ± 4	1.49666 ± 0.0024	1.49386 ± 0.0024	1.49193 ± 0.0024	1.48821 ± 0.0024	1.48536 ± 0.0024	1.48249 ± 0.0024	1.47968 ± 0.0024	1.47401 ± 0.0024					
Cc1ccccc1 [toluene] + CCCCCCCCO																	866.68 ± 4	857.39 ± 4	847.82 ± 4	838.42 ± 4	mass density ([3]; 298.15 K): 861.74 ± 4 kg/m3; mass density ([3]; 308.15 K): 851.69 ± 4 kg/m3; mass density ([3]; 318.15 K): 842.88 ± 4 kg/m3; mass density ([3]; 333.15 K): 828.94 ± 4 kg/m3; refractive index ([4]; 293.15 K): 1.49666 ± 0.0024; refractive index ([4]; 298.15 K): 1.49386 ± 0.0024; refractive index ([4]; 303.15 K): 1.49193 ± 0.0024; refractive index ([4]; 308.15 K): 1.48821 ± 0.0024; refractive index ([4]; 313.15 K): 1.48536 ± 0.0024; refractive index ([4]; 318.15 K): 1.48249 ± 0.0024; refractive index ([4]; 323.15 K): 1.47968 ± 0.0024; refractive index ([4]; 333.15 K): 1.47401 ± 0.0024
C1COCCN1 [tetrahydro-1,4-oxazine]	999.54 ± 4		989.89 ± 4		979.82 ± 4		969.78 ± 4	959.74 ± 4	1.45453 ± 0.0024		1.45031 ± 0.0024		1.44574 ± 0.0024		1.44113 ± 0.0024	1.43562 ± 0.0024					vapor or sublimation pressure ([1]; 343.91 K): 13.32 ± 1 kPa; vapor or sublimation pressure ([1]; 372.25 K): 39.99 ± 1 kPa; vapor or sublimation pressure ([1]; 387.57 K): 66.66 ± 1 kPa; vapor or sublimation pressure ([1]; 398.92 K): 94.9 ± 1 kPa
CCCCCCCCCCO [decan-1-ol] + C1COCCN1																	830.01 ± 4	823.54 ± 4	816.13 ± 4	808.84 ± 4	mass density ([3]; 333.15 K): 801.43 ± 4 kg/m3; refractive index ([4]; 293.15 K): 1.43711 ± 0.0024; refractive index ([4]; 303.15 K): 1.43332 ± 0.0024; refractive index ([4]; 313.15 K): 1.42949 ± 0.0024; refractive index ([4]; 323.15 K): 1.42564 ± 0.0024; refractive index ([4]; 333.15 K): 1.42189 ± 0.0024
